From article PMC9889749, “CID12261165, a flavonoid compound as antibacterial agents against quinolone-resistant Staphylococcus aureus” (Scientific Reports, 2023)

Legend:
Format in all cases: biochemical
[1] = molecular target: T1, DNA gyrase (wild-type GyrA + GyrB) (Staphylococcus aureus, UniProt P20831); experiment: in vitro DNA cleavage assay and DNA supercoiling assay with recombinant gyrase
T1 construct: wild-type GyrA from strain FDA209P; with GyrB

[2] = molecular target: T2, topoisomerase IV (wild-type ParC) (Staphylococcus aureus, UniProt Q2FYS4); experiment: in vitro DNA cleavage assay with recombinant topoisomerase IV
T2 construct: wild-type ParC from strain FDA209P; with ParE

[3] = molecular target: T3, DNA gyrase (GyrA S84L + wild-type GyrB) (Staphylococcus aureus, UniProt Q932M0); experiment: in vitro DNA cleavage assay and DNA supercoiling assay with recombinant gyrase
T3 construct: GyrA(S84L) from strain Mu50; with GyrB

Row | Compound | in vitro DNA cleavage assay and DNA supercoiling assay with recombinant gyrase [1] | IC50 [2] | IC50 [3]
1 | C[C@H]1COc2c(N3CCN(C)CC3)c(F)cc3c(=O)c(C(=O)O)cn1c23 [Levofloxacin] | using levofloxacin as a compound of interest, failure of DNA supercoiling activity was decreased upon acquisition of S84L mutation | 1.38 µM | –
2 | COc1ccc2c(=O)cc(-c3ccc(O)c(OC)c3)oc2c1 [CID12261165] | – | – | 4 µg/mL
